Experiment [1] has as its target GSK3α (GST-full length GSK3α) (Homo sapiens (Human), UniProt P49840). The experiment can be described thus: GSK3α TR-FRET kinase assay. Format: biochemical. In outline: (§1)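 Full-length GST-tagged human enzyme (1 nM) is exposed to test compound for 30 min before substrates are added. Phosphorylation of a primed biotinylated glycogen synthase peptide proceeds 100 min at room temperature at low ATP (4 μM α; 2 μM β) or high ATP (1 mM). Product is quantified by TR-FRET.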
For orientation: Time-resolved FRET reads energy transfer from a long-lived donor to a nearby acceptor.

The target in experiment [2] is GSK3b (GST-full length GSK3b) (Homo sapiens (Human), UniProt P49841). The experiment in a line: GSK3b TR-FRET kinase assay. The class given is biochemical. The gist of the method:
as §1

[3] abbreviates: 1 nM GSK3α, 4 μM ATP, 30 minute preincubation, Table 16, read-out: GSK3-A TR-FRET BIOCHEMICAL (TR-FRET), IC50.
The mark [4] stands for this setting: 1 nM GSK3b, 2 μM ATP, 30 minute preincubation, Table 16, read-out: GSK3-B TR-FRET BIOCHEMICAL (TR-FRET), IC50.
Setting [5] is: read-out: GSK3-A (TR-FRET 1 mM ATP), GMean, IC50, 1 mM ATP, geometric mean.
Where [6] appears, read: read-out: GSK3-B (TR-FRET 1 mM ATP), GMean, IC50, 1 mM ATP, geometric mean.
The mark [7] stands for this setting: 1 nM GSK3α, 4 μM ATP, 30 minute preincubation, geometric mean, read-out: GSK3-A TR-FRET BIOCHEMICAL (TR-FRET), GMean, IC50.
[8] abbreviates: 1 nM GSK3b, 2 μM ATP, 30 minute preincubation, geometric mean, read-out: GSK3-B TR-FRET BIOCHEMICAL (TR-FRET), GMean, IC50.
Where [9] appears, read: 1 nM GSK3α, 4 μM ATP, 30 minute preincubation, Table 16, read-out: GSK3-A TR-FRET BIOCHEMICAL (TR-FRET).
The mark [10] stands for this setting: 1 nM GSK3b, 2 μM ATP, 30 minute preincubation, Table 16, read-out: GSK3-B TR-FRET BIOCHEMICAL (TR-FRET).
[11] abbreviates: GSK3-A (TR-FRET 1 mM ATP), GMean, IC50, 1 mM ATP, geometric mean.
The mark [12] stands for this setting: GSK3-B (TR-FRET 1 mM ATP), GMean, IC50, 1 mM ATP, geometric mean.
The mark [13] stands for this setting: 1 nM GSK3α, 4 μM ATP, 30 minute preincubation, read-out: GSK3-A TR-FRET BIOCHEMICAL (TR-FRET), IC50.
Where [14] appears, read: 1 nM GSK3b, 2 μM ATP, 30 minute preincubation, read-out: GSK3-B TR-FRET BIOCHEMICAL (TR-FRET), IC50.

IC50 data for 36 compounds are collected here from patent US20250313563A1, “GLYCOGEN SYNTHASE KINASE 3 INHIBITORS AND USES THEREOF” (The Broad Institute, Inc., priority 2022, published 2025).

Where two headings read alike, the source gives them in different places.

GSK3b (GST-full length GSK3b), sequence (P49841 whole entry): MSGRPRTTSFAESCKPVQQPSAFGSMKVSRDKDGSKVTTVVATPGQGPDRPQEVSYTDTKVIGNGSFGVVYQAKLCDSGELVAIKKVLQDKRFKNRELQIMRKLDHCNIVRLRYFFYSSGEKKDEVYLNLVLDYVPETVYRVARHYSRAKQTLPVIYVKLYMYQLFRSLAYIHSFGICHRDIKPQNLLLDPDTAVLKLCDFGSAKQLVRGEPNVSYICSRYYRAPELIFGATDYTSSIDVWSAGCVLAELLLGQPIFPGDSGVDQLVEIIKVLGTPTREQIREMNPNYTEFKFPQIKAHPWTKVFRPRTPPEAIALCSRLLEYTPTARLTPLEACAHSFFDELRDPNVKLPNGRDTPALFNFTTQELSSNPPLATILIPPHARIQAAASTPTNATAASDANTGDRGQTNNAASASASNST
GSK3α (GST-full length GSK3α), sequence (P49840 whole entry): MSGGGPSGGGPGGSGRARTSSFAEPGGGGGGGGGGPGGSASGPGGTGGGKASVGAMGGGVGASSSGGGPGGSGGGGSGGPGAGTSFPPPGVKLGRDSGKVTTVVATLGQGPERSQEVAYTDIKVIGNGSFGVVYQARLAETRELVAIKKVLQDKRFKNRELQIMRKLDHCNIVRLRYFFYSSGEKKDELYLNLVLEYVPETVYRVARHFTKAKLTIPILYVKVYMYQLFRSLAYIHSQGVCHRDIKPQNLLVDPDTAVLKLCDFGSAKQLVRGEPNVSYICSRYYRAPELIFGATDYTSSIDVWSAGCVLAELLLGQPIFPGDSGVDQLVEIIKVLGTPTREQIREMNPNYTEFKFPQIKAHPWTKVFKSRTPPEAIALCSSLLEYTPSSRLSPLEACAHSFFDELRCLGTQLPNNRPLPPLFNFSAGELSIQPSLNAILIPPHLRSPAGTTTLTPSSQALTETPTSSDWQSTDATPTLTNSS

`CC1(C)CC(=O)C2=C(C1)Nc1n[nH]cc1[C@@]21CCO[C@@H](C(C)(C)C)C1` [Compound 912113]: the IC50 in experiment [1] (setting [3]) and in experiment [2] (setting [4]) was 1000 to 5000 nM throughout.

With `CC[C@@]1(c2cccc(-c3cn(C)nc3C)c2)C2=C(CC(C)(C)NC2=O)Nc2n[nH]c(F)c21` [Compound 949185], the IC50 in experiment [1] (setting [3]) was no more than 100 nM; in experiment [1] (setting [5]), no more than 100 nM; in experiment [2] (setting [4]) it was no more than 100 nM; in experiment [2] (setting [6]) it was 1000 to 5000 nM.

`CCC1(c2cccc(-n3ccnc3)c2)C2=C(CC(C)(C)CC2=O)Nc2n[nH]cc21` (stereo not drawn) [Compound 874531]: the IC50 in experiment [1] (setting [7]) and in experiment [2] (setting [8]) was no more than 100 nM each time.

On to `CCC1(c2cccc(Nc3ncccn3)c2)C2=C(CC(C)(C)CC2=O)Nc2n[nH]cc21` (stereo not drawn) [Compound 945958], for which the IC50 was 1000 to 5000 nM in experiment [1] (setting [9]) and greater than 5000 nM in experiment [2] (setting [10]).

With `CC1(C)CC(=O)C2=C(C1)Nc1n[nH]cc1C21CCN(S(=O)(=O)c2ccccc2C#N)CC1` [Compound 947479], the IC50 in experiment [1] (setting [9]) and in experiment [2] (setting [10]) was no more than 100 nM throughout.

Regarding `CC1(C)CC(=O)C2=C(C1)Nc1[nH]nc(C3(C(F)(F)F)CC3)c1C21CCc2c(F)cccc21` (stereo not drawn) [Compound 810591], the IC50 in experiment [1] (setting [7]) and in experiment [2] (setting [8]) was 100 to 1000 nM each time.

As to `CC1(C)CC(=O)C2=C(C1)Nc1n[nH]cc1C21CCN(S(=O)(=O)C2CCCCC2)CC1` [Compound 913128], the IC50 in experiment [1] (setting [3]) was no more than 100 nM; in experiment [1] (setting [11]) it was no more than 100 nM; in experiment [2] (setting [4]), no more than 100 nM; in experiment [2] (setting [12]), 100 to 1000 nM.

In the case of `CC1(C)CC(=O)C2=C(C1)Nc1n[nH]cc1[C@]21CCc2c(F)cccc21` [Compound 806633], the IC50 is no more than 100 nM in experiment [1] (setting [7]) and 100 to 1000 nM in experiment [2] (setting [8]).

For the compound `CC[C@@]1(c2cccc(-c3cnn4c3CCCC4)c2)C2=C(CC(C)(C)NC2=O)Nc2[nH]nc(C(F)(F)F)c21` [Compound 948775], the IC50 in experiment [1] (setting [7]) is no more than 100 nM; in experiment [1] (setting [11]), no more than 100 nM; in experiment [2] (setting [8]) it was no more than 100 nM; in experiment [2] (setting [12]), 100 to 1000 nM.

As to `CC[C@@]1(c2cccc(-c3ccnc4cnccc34)c2)C2=C(CC(C)(C)NC2=O)Nc2n[nH]cc21` [Compound 948819], the IC50 in experiment [1] (setting [7]) was 1000 to 5000 nM; in experiment [2] (setting [8]), greater than 5000 nM.

With `COc1ccccc1S(=O)(=O)N1CCC2(CC1)C1=C(CC(C)(C)CC1=O)Nc1n[nH]cc12` [Compound 893310], the IC50 in experiment [1] (setting [9]) is no more than 100 nM; in experiment [1] (setting [11]), no more than 100 nM; in experiment [2] (setting [10]), no more than 100 nM; in experiment [2] (setting [12]) it was 100 to 1000 nM.

Regarding `Cc1nccc([C@H]2CC[C@@]3(CC2)C2=C(CC(C)(C)CC2=O)Nc2n[nH]cc23)c1C` [Compound 950478], the IC50 in experiment [1] (setting [9]) and in experiment [2] (setting [10]) was no more than 100 nM each time.

As for `CCCC(C(C)=O)c1cccc(C2(CC)C3=C(CC(C)(C)CC3=O)Nc3n[nH]cc32)c1` (stereo not drawn) [Compound 909205], the IC50 in experiment [1] (setting [3]) and in experiment [2] (setting [4]) was no more than 100 nM each time.

As for `CCC1(c2cccc(-c3cn(C)nc3C)c2)C2=C(CC(C)(C)CC2=O)Nc2n[nH]cc21` (stereo not drawn) [Compound 926840], the IC50 in experiment [1] (setting [3]) and in experiment [2] (setting [4]) was no more than 100 nM each time.

In the case of `CCC1(c2cccc(N(C)C(=O)CN3CCCC3)c2)C2=C(CC(C)(C)CC2=O)Nc2n[nH]cc21` (stereo not drawn) [Compound 909202], the IC50 in experiment [1] (setting [3]) is 100 to 1000 nM; in experiment [2] (setting [4]) it was 1000 to 5000 nM.

Regarding `CC[C@@]1(c2cccc(Oc3ncccn3)c2)C2=C(CC(C)(C)NC2=O)Nc2n[nH]cc21` [Compound 949335], the IC50 in experiment [1] (setting [3]) and in experiment [2] (setting [4]) was greater than 5000 nM throughout.

`CCCC(=O)N1CC2(C1)CC1(CO2)C2=C(CC(C)(C)CC2=O)Nc2n[nH]cc21` (stereo not drawn) [Compound 947300]: the IC50 in experiment [1] (setting [13]) and in experiment [2] (setting [14]) was no more than 100 nM each time.

Regarding `CCC1(c2cccc(-c3ccnc(C)c3)c2)C2=C(CC3(CCOC3)CC2=O)Nc2n[nH]cc21` (stereo not drawn) [Compound 947412], the values for the IC50 in experiment [1] (setting [9]) and in experiment [2] (setting [10]) were 1000 to 5000 nM and greater than 5000 nM, respectively.

As to `CC1(C)CC(=O)C2=C(C1)Nc1n[nH]c(C(F)(F)F)c1C21CCCOc2ccccc21` (stereo not drawn) [Compound 790632], the IC50 in experiment [1] (setting [7]) and in experiment [2] (setting [8]) was greater than 5000 nM throughout.

For `CCC1(c2cccc(Br)c2)C2=C(CC(C)(C)CC2=O)Nc2n[nH]cc21` (stereo not drawn) [Compound 790734], the IC50 is 100 to 1000 nM in experiment [1] (setting [7]) and greater than 5000 nM in experiment [2] (setting [8]).

Take `CCC1(c2cccc(-c3cc(C)ncc3F)c2)C2=C(CC(C)(C)NC2=O)Nc2n[nH]cc21` (stereo not drawn) [Compound 947804]: the IC50 in experiment [1] (setting [7]) is no more than 100 nM; in experiment [2] (setting [8]), 100 to 1000 nM.

For the compound `CC[C@]1(c2cccc(-c3cncn3C)c2)C2=C(CC(C)(C)CC2=O)Nc2n[nH]c(C)c21` [Compound 913037], the IC50 is no more than 100 nM in experiment [1] (setting [3]) and 100 to 1000 nM in experiment [2] (setting [4]).

On to `CC1(C)CC(=O)C2=C(C1)Nc1n[nH]cc1C21CCN(S(=O)(=O)c2ccc(F)cc2)CC1` [Compound 893311], for which the IC50 is no more than 100 nM in experiment [1] (setting [9]), 100 to 1000 nM in experiment [1] (setting [11]), no more than 100 nM in experiment [2] (setting [10]) and 1000 to 5000 nM in experiment [2] (setting [12]).

Turning to `CC[C@]1(c2cccc(-c3ccncc3C(F)(F)F)c2)C2=C(CC(C)(C)NC2=O)Nc2n[nH]cc21` [Compound 952025], the IC50 is no more than 100 nM in experiment [1] (setting [3]), no more than 100 nM in experiment [1] (setting [5]), no more than 100 nM in experiment [2] (setting [4]) and 1000 to 5000 nM in experiment [2] (setting [6]).

Regarding `CC[C@]1(c2cccc(-c3ccnc4c3CCCC4)c2)C2=C(CN(Cc3ccccc3)C2=O)Nc2n[nH]cc21` [Compound 948552], the IC50 is 100 to 1000 nM in experiment [1] (setting [13]) and greater than 5000 nM in experiment [2] (setting [14]).

Turning to `CCC1(c2cccc(-c3ccccc3)c2)C2=C(CC(C)(C)CC2=O)Nc2n[nH]cc21` (stereo not drawn) [Compound 801369], the IC50 in experiment [1] (setting [7]) and in experiment [2] (setting [8]) was greater than 5000 nM throughout.

In the case of `CCC1(c2cccc(-c3c(C)nn(C)c3C)c2)C2=C(CC(C)(C)NC2=O)Nc2n[nH]cc21` (stereo not drawn) [Compound 945462], the IC50 in experiment [1] (setting [13]) and in experiment [2] (setting [14]) was no more than 100 nM each time.

With `CCC1(c2cccc(-c3ccnc4c3CCCC4)c2)C2=C(CC(C)(C)C2=O)Nc2n[nH]cc21` (stereo not drawn) [Compound 952752], the values for the IC50 in experiment [1] (setting [3]) and in experiment [2] (setting [4]) were no more than 100 nM and 100 to 1000 nM, respectively.

Consider `CC[C@]1(c2cccc(OC)c2)C2=C(CC(C)(C)NC2=O)Nc2n[nH]c(C)c21` [Compound 949328], for which the IC50 was 1000 to 5000 nM in experiment [1] (setting [3]) and greater than 5000 nM in experiment [2] (setting [4]).

`CCCn1nccc1-c1cccc(C2(CC)C3=C(CC(C)(C)CC3=O)Nc3n[nH]cc32)c1` (stereo not drawn) [Compound 946094]: the IC50 in experiment [1] (setting [9]) lay within 100 to 1000 nM; in experiment [2] (setting [10]) it was 1000 to 5000 nM.

Regarding `CCC1(c2cccc(N3CCOCC3)c2)C2=C(CC(C)(C)NC2=O)Nc2n[nH]cc21` (stereo not drawn) [Compound 945602], the IC50 in experiment [1] (setting [13]) was 1000 to 5000 nM; in experiment [2] (setting [14]), greater than 5000 nM.

On to `CC[C@@]1(c2ccccc2)C2=C(CC(C)(C)C(O)C2=O)Nc2n[nH]cc21` (stereo partly drawn) [Compound 946056], for which the IC50 in experiment [1] (setting [9]) is 100 to 1000 nM; in experiment [2] (setting [10]), greater than 5000 nM.

On to `CCC1(c2cccc(N(C)C(C)=O)c2)C2=C(CC(C)(C)CC2=O)Nc2n[nH]cc21` (stereo not drawn) [Compound 801319], for which the IC50 in experiment [1] (setting [7]) and in experiment [2] (setting [8]) was no more than 100 nM in each case.

In the case of `CC1(C)CCC2(CC1)C1=C(CC(C)(C)CC1=O)Nc1n[nH]cc12` [Compound 884107], the IC50 in experiment [1] (setting [9]) is no more than 100 nM; in experiment [2] (setting [10]), 100 to 1000 nM.

On to `CCC1(c2cccc(-c3ccnc(O)c3)c2)C2=C(CC(C)(C)CC2=O)Nc2n[nH]cc21` (stereo not drawn) [Compound 943992], for which the results for the IC50 in experiment [1] (setting [9]) and in experiment [2] (setting [10]) were no more than 100 nM and 100 to 1000 nM, respectively.

For `CCC1(c2cccc(-c3cnnn3C(C)C)c2)C2=C(CC(C)(C)CC2=O)Nc2n[nH]cc21` (stereo not drawn) [Compound 947397], the IC50 in experiment [1] (setting [9]) and in experiment [2] (setting [10]) was no more than 100 nM throughout.
